Measurements from paper PMC9981747, “A covalent BTK ternary complex compatible with targeted protein degradation” (Nature Communications, 2023).
Several values for one entry are separate records, joined by “and”; a condition that tells them apart may be missing. Identical values can stand only once. Like-named read-outs stand apart in the source and are kept apart here.

Key:
BTK^FL = molecular target: T1, BTK^FL (Homo sapiens, UniProt Q06187+Q13490); assay: Expi293 dose-dependent BTK degradation (western blot), BTK^FL co-transfected with cIAP1^FL; type: cell-based; settings: for DC50: Expi293, cIAP1^FL co-transfected, ~18 h, 3 experiments, read-out: DC50 for degradation of BTK^FL (WT)
T1 construct: we used a full-length BTK (aa1-659) with a C terminal Tobacco Etch Virus protease (TEV) site; expressed in transfected cells; host or cells: Expi293 (HEK293)
Description: (§1) Gibco Expi293 cell line Transfection Kit (Cat.# A14524) was cultured according to the manufacturers conditions. Cells were grown at 37 °C with 5% CO2 to 4 × 10^6 cells/mL using an orbital shaker set to 95 RPM. Next cells were split to 2 × 10^6 cells/mL and transfected with plasmid DNA at a 1 µg/mL final concentration in Optimem (Gibco 31985070) using the Expifectamine 293 transfection reagent according to manufacturer’s conditions. After approximately 18 h, enhancers 1 and 2 (provided with kit). Viability was typically about 85%. When cIAP1^FL was transfected, it was detected via α-cIAP1 antibody there was typically some autoubiquitination detected, and thus often appeared as a laddered or smeared band via western blotting. When BTK^FL variants were transfected, they were detected using anti-BTK antibody (D3H5).
(§2) For dose-dependent degradation assays, cells were plated in a 24-well format and placed on a separate orbital shaker set to 115 RPM. Each well was treated with prescribed compound concentrations in the same manner as with THP-1 cells, with the exception of using Expifectamine 293 growth medium in place of RPMI 1640 complete media. After approximately 18 h post-treatment cells were harvested, centrifuged at 100 x g at 4 °C, washed twice with ice-cold PBS, and resuspended in RIPA buffer supplemented with a Roche protease inhibitor cocktail (Cat. #11873580001), and benzonase nuclease (Millipore-Sigma Cat# 70664). Each sample was incubated on ice for 30 min with periodic vortexing and centrifuged at 15 Kxg for 20 min. Clarified lysate was harvested and quantified using a Pierce BCA Assay Kit (Cat. #23225), and 20 µg of the sample was loaded into a 4–15% Criterion TGX gel (Bio-Rad, 5678085) and transferred to a nitrocellulose membrane (Life Technologies Cat. #IB23001) using an iBlot 2 (Life Technologies Cat. #IB21001). Proteins were detected using an iBind system (Life Technologies SLF2020). For BTK^T474I and BTK^T474I/C481S we inferred ligand entry into cells via the autoubiquitination and dose-dependent degradation of cIAP1^FL,[58].
(§3) Dose-dependent Degradation was analyzed using ImageJ (NIH, version 1.50i). Densiometric analysis was performed, normalized to DMSO signal, and analyzed using GraphPad Prism (Version 9.0.0 (121)). Non-linear fit one-phase decay analysis was used to obtain DC50 values. When we observed a hook effect, some points were excluded as part of the fit. In Supplementary Fig. 7B the complete curve was fit using GraphPad Prism non-linear regression bell-shaped curve where X is the concentration. However, using this method we were unable to obtain stable values for our DC50. SEM error was plotted for each point. When determining statistically significant differences, we used a two-sided student’s unpaired T-Test.

BTK^FL-C481S = molecular target: T2, BTK^FL-C481S (Homo sapiens, UniProt Q06187+Q13490, C481S); assay: Expi293 dose-dependent BTK degradation (western blot), BTK^FL-C481S co-transfected with cIAP1^FL; type: cell-based; settings: for C481S BTK blot signal normalized to DMSO: replicates; for DC50: Expi293, cIAP1^FL co-transfected, ~18 h, 3 experiments
T2 construct: we used a full-length BTK (aa1-659) with a C terminal Tobacco Etch Virus protease (TEV) site; expressed in transfected cells; host or cells: Expi293 (HEK293)
Description: as §1, §2, §3

[1] = molecular target: T3, BTK^KD and cIAP1^BUCR1 ternary complex (Homo sapiens, UniProt Q06187+Q13490); assay: Biolayer interferometry (BLI) ternary complex formation; type: binding
T3 construct: BTK^KD (aa384-659) were expressed and purified as previously described; cIAP1^BUCR1 (aa260-618), and BTK^KD (aa384-659) were expressed and purified as previously described; biotin / BAP (only when BTK^KD~BCCov was the sensor ligand); made in house; host or cells: BTK^KD: SF9 insect cells; cIAP1^BUCR1: E. coli BL21-DE3
Description: We performed biolayer interferometry (BLI) with an OctetRED384 system (Data Acquisition Version 9.0.0.49) as described previously. […] Ligands were loaded onto streptavidin biosensors (ForteBio, 18-5019) for 120 s, washed in Octet buffer for 200 s, quenched with 50 μM d-biotin (Invitrogen) for 120 s, and washed in Octet buffer for 500 s. […] Excess compound was desalted using a Zeba Spin Desalting Column (Cat. #89882). The preformed binary complex was then dipped into varying concentrations of analyte diluted in Octet buffer for 300 s to determine kon, followed by a wash for 500 s to determine koff. Binding kinetics were calculated and plotted using BiaEvaluation Software (version 4.1.1). Cooperativity (α) was determined by calculating the ratio of binary Kd to ternary complex Kd.

cIAP1^BUCR1 = cIAP1^BUCR1 (Homo sapiens, UniProt Q13490); assay: biochemical
Sequence of cIAP1^BUCR1 (Q13490 260-618): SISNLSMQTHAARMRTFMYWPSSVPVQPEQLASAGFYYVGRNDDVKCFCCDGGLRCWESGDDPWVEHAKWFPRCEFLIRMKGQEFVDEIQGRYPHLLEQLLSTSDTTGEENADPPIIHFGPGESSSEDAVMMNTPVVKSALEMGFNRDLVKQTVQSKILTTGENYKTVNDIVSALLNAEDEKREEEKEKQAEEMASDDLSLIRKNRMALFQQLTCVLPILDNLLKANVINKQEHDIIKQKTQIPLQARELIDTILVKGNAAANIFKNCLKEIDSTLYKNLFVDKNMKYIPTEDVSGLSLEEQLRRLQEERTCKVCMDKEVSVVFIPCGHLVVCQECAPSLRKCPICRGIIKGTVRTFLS
Description: Experiments were performed on a Biacore^TM 8k instrument (GE Healthcare). Biotinylated cIAP1^Bir3 was captured onto a streptavidin sensor chip to levels ranging from 3000–4000 RU. Compound binding experiments were performed in 10 mM HEPES, pH 7.5, 150 mM NaCl, 0.02% BSA, 0.01% P20, and 2% DMSO at 25 °C. Experiments were carried out with n = 4 at 6 concentrations, with the highest concentration of 37 nM and subsequent 3-fold dilutions. BCCov was injected at a flow rate of 30 µL/min, total contact time of 120 s, and dissociation times of 5000 s, using the Single Cycle Kinetics experiment. Binding responses were processed using the Biacore 8k software to zero, x-align, double reference, and correct for excluded volume effects of DMSO in the data.

T2 sequence (Q06187 whole entry C481S, the tested form may be a part): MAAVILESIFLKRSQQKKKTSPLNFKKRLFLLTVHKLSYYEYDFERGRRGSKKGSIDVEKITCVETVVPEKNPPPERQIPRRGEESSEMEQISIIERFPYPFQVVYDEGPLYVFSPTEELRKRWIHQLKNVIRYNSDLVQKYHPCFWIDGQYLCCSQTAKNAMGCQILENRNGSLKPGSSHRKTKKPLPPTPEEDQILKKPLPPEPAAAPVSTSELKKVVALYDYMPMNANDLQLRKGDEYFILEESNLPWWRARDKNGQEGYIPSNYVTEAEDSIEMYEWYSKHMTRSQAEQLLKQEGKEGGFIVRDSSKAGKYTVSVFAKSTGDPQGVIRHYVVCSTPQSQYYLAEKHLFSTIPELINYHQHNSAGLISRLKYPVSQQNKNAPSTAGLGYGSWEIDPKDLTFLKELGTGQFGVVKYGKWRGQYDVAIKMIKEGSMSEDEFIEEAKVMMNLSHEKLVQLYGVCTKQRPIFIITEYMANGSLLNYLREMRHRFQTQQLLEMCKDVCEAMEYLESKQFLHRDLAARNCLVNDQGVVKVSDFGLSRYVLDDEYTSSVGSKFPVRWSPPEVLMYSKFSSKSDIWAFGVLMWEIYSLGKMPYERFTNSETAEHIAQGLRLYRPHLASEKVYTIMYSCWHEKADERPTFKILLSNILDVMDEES
T2 sequence (Q13490 whole entry, the tested form may be a part): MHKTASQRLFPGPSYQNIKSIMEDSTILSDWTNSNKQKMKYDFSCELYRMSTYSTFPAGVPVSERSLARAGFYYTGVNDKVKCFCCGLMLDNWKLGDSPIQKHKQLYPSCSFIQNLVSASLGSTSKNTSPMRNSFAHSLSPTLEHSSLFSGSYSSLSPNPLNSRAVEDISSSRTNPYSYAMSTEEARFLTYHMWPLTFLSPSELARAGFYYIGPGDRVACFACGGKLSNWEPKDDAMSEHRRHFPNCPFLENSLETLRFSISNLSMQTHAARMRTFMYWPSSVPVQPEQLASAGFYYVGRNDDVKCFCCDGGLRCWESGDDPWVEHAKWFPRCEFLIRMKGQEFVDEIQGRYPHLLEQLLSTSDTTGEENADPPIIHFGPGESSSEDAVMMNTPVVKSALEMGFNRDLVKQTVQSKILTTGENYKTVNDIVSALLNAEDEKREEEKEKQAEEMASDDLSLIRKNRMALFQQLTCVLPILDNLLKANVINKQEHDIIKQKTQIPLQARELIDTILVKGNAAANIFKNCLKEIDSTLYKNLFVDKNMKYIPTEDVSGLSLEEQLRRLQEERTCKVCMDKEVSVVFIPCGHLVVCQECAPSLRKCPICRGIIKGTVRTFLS
T1 sequence (Q06187 whole entry, the tested form may be a part): as the sequence (Q06187 whole entry C481S, the tested form may be a part) above, with S481C counted along it
T1 sequence (Q13490 whole entry, the tested form may be a part): as the sequence (Q13490 whole entry, the tested form may be a part) above
T3 sequence (Q06187 384-659): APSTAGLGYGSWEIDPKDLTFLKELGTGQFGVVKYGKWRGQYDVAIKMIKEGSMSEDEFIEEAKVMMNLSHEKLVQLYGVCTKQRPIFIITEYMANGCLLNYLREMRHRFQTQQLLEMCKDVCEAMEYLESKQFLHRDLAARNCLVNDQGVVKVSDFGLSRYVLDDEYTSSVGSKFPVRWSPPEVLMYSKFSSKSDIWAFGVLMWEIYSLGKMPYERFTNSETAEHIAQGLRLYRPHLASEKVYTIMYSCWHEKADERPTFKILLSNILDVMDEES
T3 sequence (Q13490 260-618): as the sequence (Q13490 260-618) above

Compound	WT BTK blot signal normalized to DMSO (BTK^FL; 0.004883 uM, replicates)	WT BTK blot signal normalized to DMSO (BTK^FL; 0.009766 uM, replicates)	WT BTK blot signal normalized to DMSO (BTK^FL; 0.019531 uM, replicates)	WT BTK blot signal normalized to DMSO (BTK^FL; 0.039063 uM, replicates)	WT BTK blot signal normalized to DMSO (BTK^FL; 0.078125 uM, replicates)	WT BTK blot signal normalized to DMSO (BTK^FL; 0.15625 uM, replicates)	WT BTK blot signal normalized to DMSO (BTK^FL; 0.3125 uM, replicates)	WT BTK blot signal normalized to DMSO (BTK^FL; 0.625 uM, replicates)	WT BTK blot signal normalized to DMSO (BTK^FL; 1.25 uM, replicates)	WT BTK blot signal normalized to DMSO (BTK^FL; 2.5 uM, replicates)	WT BTK blot signal normalized to DMSO (BTK^FL; 5 uM, replicates)	DC50 (BTK^FL)	C481S BTK blot signal normalized to DMSO (BTK^FL-C481S; 0.004883 uM)	C481S BTK blot signal normalized to DMSO (BTK^FL-C481S; 0.009766 uM)	C481S BTK blot signal normalized to DMSO (BTK^FL-C481S; 0.019531 uM)	C481S BTK blot signal normalized to DMSO (BTK^FL-C481S; 0.039063 uM)	C481S BTK blot signal normalized to DMSO (BTK^FL-C481S; 0.078125 uM)	C481S BTK blot signal normalized to DMSO (BTK^FL-C481S; 0.15625 uM)	C481S BTK blot signal normalized to DMSO (BTK^FL-C481S; 0.3125 uM)	C481S BTK blot signal normalized to DMSO (BTK^FL-C481S; 0.625 uM)	also measured
CNC(C)C(=O)NC(C(=O)N1CC(NC(=O)COCCN2CCN(CC=CC(=O)N3CCCC(n4nc(-c5ccc(Oc6ccccc6)cc5)c5c(N)ncnc54)C3)CC2)CC1C(=O)NC1CCCc2ccccc21)C1CCCCC1 (stereo not shown) [BCCov]	0.92 and 0.99 and 1.00	0.74 and 1.02 and 0.84	0.72 and 0.83 and 0.75	0.52 and 0.87 and 0.78	0.38 and 0.65 and 0.51	0.29 and 0.54 and 0.30	0.25 and 0.36 and 0.30	0.21 and 0.32 and 0.16	0.20 and 0.35 and 0.15	0.24 and 0.40 and 0.29	0.68 and 0.77 and 0.51	57.2 ± 28 nM	0.87 and 0.90 and 0.91	0.89 and 0.76 and 0.79	0.87 and 0.66 and 0.82	0.76 and 0.72 and 0.87	0.63 and 0.53 and 0.56	0.51 and 0.41 and 0.42	0.35 and 0.41 and 0.28	0.26 and 0.34 and 0.16	BTK level normalized to untreated BTK^FL, Figure 1B Lane 2 (BTK^FL; 5 µM, BTK^FL without cIAP1^FL, replicates): 1.30 and 0.97 and 0.91; BTK degradation without cIAP1^FL (BTK^FL; BTK^FL transfected without cIAP1^FL (Fig. 1B, lane 2)): no observable ligand-induced BTK degradation; hook effect in degradation profile (BTK^FL; wt BTK^FL, Expi293): partial hook effect; C481S BTK blot signal normalized to DMSO (BTK^FL-C481S; 1.25 uM): 0.27 and 0.20 and 0.13; C481S BTK blot signal normalized to DMSO (BTK^FL-C481S; 2.5 uM): 0.21 and 0.11 and 0.057; C481S BTK blot signal normalized to DMSO (BTK^FL-C481S; 5 uM): 0.21 and 0.09 and 0.0641; DC50 (BTK^FL-C481S): 122 ± 44 nM; Kd [1]: 72.5 nM; cooperativity factor α = Kd binary/Kd ternary ([1]; upper limit): ≤ 0.2; Kd (cIAP1^BUCR1): ≤ 10 nM
CNC(C)C(=O)NC(C(=O)N1CC(NC(=O)COCCN2CCN(CCCC(=O)N3CCCC(n4nc(-c5ccc(Oc6ccccc6)cc5)c5c(N)ncnc54)C3)CC2)CC1C(=O)NC1CCCc2ccccc21)C1CCCCC1 (stereo not shown) [BCNC]	0.92 and 1.00 (2×)	0.74 and 1.02 and 0.84	0.72 and 0.83 and 0.75	0.52 and 0.87 and 0.78	0.38 and 0.65 and 0.51	0.29 and 0.54 and 0.30	0.25 and 0.36 and 0.30	0.21 and 0.32 and 0.16	0.2 and 0.35 and 0.15	0.24 and 0.40 and 0.29	0.68 and 0.77 and 0.51	149 ± 70 nM	0.87 and 1.00 (2×)	0.89 and 0.76 and 0.79	0.87 and 0.66 and 0.82	0.76 and 0.72 and 0.87	0.63 and 0.53 and 0.56	0.51 and 0.41 and 0.42	0.35 and 0.41 and 0.28	0.26 and 0.34 and 0.16	C481S BTK blot signal normalized to DMSO (BTK^FL-C481S; 1.25 uM): 0.27 and 0.20 and 0.13; C481S BTK blot signal normalized to DMSO (BTK^FL-C481S; 2.5 uM): 0.21 and 0.11 and 0.057; C481S BTK blot signal normalized to DMSO (BTK^FL-C481S; 5 uM): 0.21 and 0.09 and 0.0641; DC50 (BTK^FL-C481S): 145 ± 58 nM; Kd ([1]; [cIAP1^BUCR1-BCNC] binary complex binding BTK^KD, read-out: Kd, ternary complex): 49.8 nM
